Read-outs that look alike come from different tables or passages of the source.
Assays:
P. acnes NCTC 737 [1] = experiment: Disc diffusion assay (DDA), also supplemented;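 further: paper disc carrying compound placed on inoculated Wilkins-Chalgren Anaerobe agar pH 6.0, with lipid or NaCl supplement where listed, anaerobic 37 °C for 72 h, inhibition zone diameter read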
Experimental: (§6) The propionibacteria were cultured and maintained on Wilkins-Chalgren Anaerobe Medium (agar and broth) at pH 6.0; all cultures were incubated anaerobically at 37° C. for 72 hours.
(d) Disc Diffusion Assay (DDA)
(§7) A sterile paper disc was impregnated with a sample of the test compound in a suitable solvent and 30 minutes allowed for the solvents to evaporate (where possible). The disc was then placed on an agar plate onto which the test micro-organism had been inoculated. The plate was then incubated under the conditions described above, following which it was examined visually for signs of bacterial growth. […] The diameter of this zone of “inhibition” was measured using a ProtoCOL™ automated zone sizer (Synbiosis, Cambridge, UK).
(f) Supplemented Disc Diffusion Assays
(§8) For assays using Propionibacterium spp. strains the supplements used in the examples below were lipid (either Tween™ 80 or triolein, both at 1% v/v) and sodium chloride (100 mM).

P. acnes NCTC 737 [2] = experiment: Synergy disc diffusion assay (SDDA), also supplemented
Experimental: as §6
(e) Synergy Disc Diffusion Assay (SDDA)
This is a variation on the DDA method, in which two compounds are tested together for their combined antimicrobial activity.
Two test compounds A and B were placed on a single paper disc and the above described DDA procedure repeated.
(f) Supplemented Disc Diffusion Assays
as §8

S. aureus ATCC 29213 [3] = experiment: Minimum inhibitory concentration (MIC) assay; type: cell-based, Staphylococcus aureus
Source text: (§1) (a) Minimum Inhibitory Concentration (MIC) Assay
(§2) The culture media were as described above.
(§3) The assays included both negative (culture medium with no micro-organisms) and positive (culture medium plus diluting solvent plus micro-organism) controls.

P. acnes NCTC 737 [4] = experiment: Minimum inhibitory concentration (MIC) assay; type: cell-based, Propionibacterium acnes
Source text: as §1, §2, §3

S. aureus ATCC 29213 [5] = experiment: Synergy disc diffusion assay (SDDA), also supplemented;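 further: disc diffusion on Mueller-Hinton agar at pH 7.2, aerobic incubation at 37 °C lasting 19-20 h, two compounds assessed jointly for combined antimicrobial effect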
S. aureus ATCC 29213 [6] = experiment: Disc diffusion assay (DDA), also supplemented
Experimental: The staphylococci were cultured and maintained on Mueller-Hinton Medium (agar and broth) at pH 7.2; cultures were incubated aerobically at 37° C. for 19-20 hours.
(d) Disc Diffusion Assay (DDA)
as §7
(f) Supplemented Disc Diffusion Assays
For assays using S. aureus ATCC 29213 the supplements used were sodium chloride (100 mM), lipid (Tween™ 80 at 1% v/v) and horse serum (5% v/v).

S. aureus ATCC 29213 [7] = experiment: Minimum bactericidal concentration (MBC) assay; type: cell-based, Staphylococcus aureus
Experimental: (§4) (b) Minimum Bactericidal Concentration (MBC) Assay
(§5) Following incubation they were examined visually for bacterial growth.

P. acnes NCTC 737 [8] = experiment: Minimum bactericidal concentration (MBC) assay; type: cell-based, Propionibacterium acnes
Experimental: as §4, §5

[9] = copper salt alone, 200 μg per disc (silicate 62 μg), sodium chloride (100 mM)
[10] = copper salt + TBHQ on one disc, 200 μg of each (silicate 62 μg), unsupplemented
[11] = copper salt + TBHQ vs larger zone of either compound alone, unsupplemented
[12] = copper salt + TBHQ, salt and lipid (1% (v/v) Tween 80)
[13] = copper salt + TBHQ, unsupplemented
[14] = copper salt alone, S. aureus ATCC 29213
[15] = copper salt alone, P. acnes NCTC 737
[16] = copper salt + TBHQ, salt and serum supplements

## On1ccccc1=S.On1ccccc1=S.[Cu] [Copper (II) pyrithione]
P. acnes NCTC 737 [1]
  DDA: 56.42 mm
  DDA + lipid: 22.38 mm
  DDA + salt: 43.21 mm
  DDA + salt & lipid: 33.37 mm
P. acnes NCTC 737 [2]
  SDDA area increase: 18.55%
  SDDA increase: 5.01 mm
  SDDA with TBHQ: 61.43 mm
  SL SDDA area increase: 7.64%
  SL SDDA increase: 1.25 mm
  SL SDDA with TBHQ: 34.63 mm
S. aureus ATCC 29213 [3]
  MIC: 0.49 µg/mL
  MIC/MBC ratio: 1
P. acnes NCTC 737 [4]
  MIC: 0.24 µg/mL
  MIC/MBC ratio: 0.5
S. aureus ATCC 29213 [5]
  SDDA area increase: 150.13%
  SDDA increase: 19.29 mm
  SDDA with TBHQ: 52.45 mm
  SS SDDA area increase: 66.12%
  SS SDDA increase: 9.29 mm
  SS SDDA with TBHQ: 41.43 mm
S. aureus ATCC 29213 [6]
  DDA: 20.51 mm
  DDA + lipid: 15.25 mm
  DDA + salt: 21.48 mm
  DDA + salt & serum: 17.86 mm
S. aureus ATCC 29213 [7]
  MBC: 0.49 µg/mL
P. acnes NCTC 737 [8]
  MBC: 0.49 µg/mL

## O.O=C([O-])C(O)C(O)C(=O)[O-].[Cu+2] (centres unmarked) [Copper (II) tartrate hydrate]
P. acnes NCTC 737 [1]
  DDA: 49.64 mm
  DDA + lipid: 38.35 mm
  DDA + salt: 48.25 mm
  DDA + salt & lipid: 47.56 mm
P. acnes NCTC 737 [2]
  SDDA area increase: 20.27%
  SDDA increase: 4.8 mm
  SDDA with TBHQ: 54.44 mm
  SL SDDA area increase: 24.11%
  SL SDDA increase: 5.42 mm
  SL SDDA with TBHQ: 52.98 mm
S. aureus ATCC 29213 [3]
  MIC: >250 µg/mL
P. acnes NCTC 737 [4]
  MIC: 15.6 µg/mL
  MIC/MBC ratio: 0.25
S. aureus ATCC 29213 [5]
  SDDA area increase: −88.71%
  SDDA increase: −26.84 mm
  SDDA with TBHQ: 13.58 mm
  SS SDDA area increase: −94.19%
  SS SDDA increase: −33.15 mm
  SS SDDA with TBHQ: 10.53 mm
S. aureus ATCC 29213 [6]
  DDA: 0 mm
  DDA + lipid: 0 mm
  DDA + salt: 0 mm
  DDA + salt & serum: 0 mm
S. aureus ATCC 29213 [7]
  MBC: >250 µg/mL
P. acnes NCTC 737 [8]
  MBC: 62.5 µg/mL

## Copper (I) oxide
P. acnes NCTC 737 [1]; copper salt alone, 200 μg per disc (silicate 62 μg), 1% (v/v) Tween 80
  DDA + lipid: 37.42 mm
P. acnes NCTC 737 [1]; copper salt alone, 200 μg per disc (silicate 62 μg), salt and 1% (v/v) Tween 80
  DDA + salt & lipid: 43.49 mm
P. acnes NCTC 737 [1]; [9]
  DDA + salt: 44.85 mm
P. acnes NCTC 737 [2]; copper salt + TBHQ on one disc, 200 μg of each (silicate 62 μg), salt and lipid (1% (v/v) Tween 80)
  SL SDDA with TBHQ: 51.73 mm
P. acnes NCTC 737 [2]; [10]
  SDDA with TBHQ: 50.06 mm
P. acnes NCTC 737 [2]; [11]
  SDDA increase: 1.25 mm
P. acnes NCTC 737 [2]; [12]
  SL SDDA area increase: 41.48%
  SL SDDA increase: 8.24 mm
P. acnes NCTC 737 [2]; [13]
  SDDA area increase: 5.18%
S. aureus ATCC 29213 [3]; [14]
  MIC: >250 µg/mL
P. acnes NCTC 737 [4]; [15]
  MIC: 1.95 µg/mL
  MIC/MBC ratio: 0.06
S. aureus ATCC 29213 [5]; copper salt + TBHQ on one disc, 200 μg of each (silicate 62 μg), salt and serum supplements
  SS SDDA with TBHQ: 45.26 mm
S. aureus ATCC 29213 [5]; [10]
  SDDA with TBHQ: 57.05 mm
S. aureus ATCC 29213 [5]; [11]
  SDDA increase: 16.63 mm
S. aureus ATCC 29213 [5]; [16]
  SS SDDA area increase: 7.37%
  SS SDDA increase: 1.58 mm
S. aureus ATCC 29213 [5]; [13]
  SDDA area increase: 99.21%
S. aureus ATCC 29213 [6]; copper salt alone, 200 μg per disc (silicate 62 μg), Tween 80 at 1% v/v
  DDA + lipid: 0 mm
S. aureus ATCC 29213 [6]; copper salt alone, 200 μg per disc (silicate 62 μg), salt and horse serum (5% v/v)
  DDA + salt & serum: 0 mm
S. aureus ATCC 29213 [6]; [9]
  DDA + salt: 0 mm
S. aureus ATCC 29213 [7]; [14]
  MBC: >250 µg/mL
P. acnes NCTC 737 [8]; [15]
  MBC: 31.25 µg/mL
